Results as given in patent US9212168B2 (priority 2011, dated 2015).
pEC50: −log10 of the molar value.

Experiments:
HCV genotype 1b replicon = HCV genotype 1b replicon assay (Renilla luciferase readout); assay type: cell-based, hepatitis C virus; details: for pEC50: Hepatitis C virus, read-out: Genotype 1b; for Genotype 1b: HCV genotype 1b replicon
In short: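 Huh7-derived APC144 subgenomic replicon cells carrying Renilla luciferase–NS3-NS5B, seeded 10,000/well without G418, then treated with compound dose-responses for 48 h at 37 °C (0.5% DMSO final). Luciferase signal fitted by 4-parameter model to EC50, reported as pEC50.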

HCV genotype 1a replicon = HCV genotype 1a replicon assay (NS3 protease activity readout); assay type: cell-based, hepatitis C virus; details: for pEC50: Hepatitis C virus, read-out: Genotype 1a, HCV genotype 1a replicon; for Genotype 1a: HCV genotype 1a replicon
In short: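 Genotype 1a subgenomic replicon cells (APC89, Huh7.5) were treated with compound dose-responses in G418-free medium, 0.5% DMSO final, for 48 or 72 hours at 37° C. Lysate NS3/4a protease activity measured with 15 μM FRET substrate, 20 min at 37° C (ex 340/em 509 nm); EC50 by 4-parameter fit.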

| SMILES | pEC50 (HCV genotype 1b replicon) | pEC50 (HCV genotype 1a replicon) | Genotype 1b (HCV genotype 1b replicon) | Genotype 1a (HCV genotype 1a replicon) |
| --- | --- | --- | --- | --- |
| COC(=O)N[C@H](C(=O)N1C[C@@H](C)C[C@H]1c1nc(-c2ccc(-c3cc(F)c(NC(=O)c4ccc(N5CCN(C(=O)C(C)(C)CO)C[C@H]5C)nc4)cc3OC(F)(F)F)cc2)c[nH]1)C1CCOCC1 [Example 13-27] | > 10.00 | > 10.00 | – | – |
| CNC(=O)N1CCC[C@@H]1C(=O)N1C[C@@H](C)N(c2ccc(NC(=O)c3ccc(-c4ccc(-c5c[nH]c([C@@H]6C[C@H](C)CN6C(=O)[C@@H](NC(=O)OC)C(C)C)n5)cc4)c(OC(F)(F)F)c3)cn2)C[C@@H]1C [Example 4-19] | – | – | D (D represents pEC50>10 (EC50<0.1 nM)) | D (D represents pEC50>10 (EC50<0.1 nM)) |
| COC[C@H]1CN(c2ccc(NC(=O)c3cc(OC(F)(F)F)c(-c4ccc(-c5c[nH]c([C@@H]6C[C@H](C)CN6C(=O)[C@@H](NC(=O)OC)C6CCOCC6)n5)cc4)cc3Cl)cn2)CCN1C(=O)C(C)(C)C [24-4] | – | – | D (D represents pEC50>10 (EC50<0.1 nM)) | C (C represents pEC50 between and 9 and about 10, (EC50 between 1 nM and 0.1 nM)) |
| COC(=O)N[C@H](C(=O)N1[C@@H](C)CC[C@H]1c1nc(-c2ccc(-c3cc(Cl)c(NC(=O)c4ccc(N5CCN(C(=O)C(C)(C)C)C[C@H]5C)nc4)cc3OC(F)(F)F)cc2)c[nH]1)C(C)C [Example 17-3] | – | – | D (D represents pEC50>10 (EC50<0.1 nM)) | D (D represents pEC50>10 (EC50<0.1 nM)) |
| C[C@H]1C[C@@H](c2nc(-c3ccc(-c4cc(Cl)c(NC(=O)c5ccc(N6CCN(C(=O)C(C)(C)C)C[C@H]6C)nc5)cc4OC(F)(F)F)cc3)c[nH]2)N(C(=O)[C@@H](c2ccccc2)N2CCCCC2)C1 [Example 13-1] | > 10.00 | > 10.00 | – | – |
| COC(=O)N[C@H](C(=O)N1C[C@@H](C)C[C@H]1c1nc(-c2ccc(-c3cc(Cl)c(NC(=O)c4ccc(N5CCN(C(=O)C6CC(O)C6)C[C@H]5C)nc4)cc3OC(F)(F)F)cc2)c[nH]1)C(C)C (stereo partly drawn) [Example 12-47] | > 10.00 | > 10.00 | – | – |
| COC(=O)NC(C(=O)N1CC(C)CC1c1nc(-c2ccc(-c3ccc(NC(=O)c4ccc(N5CCN(C(=O)C(C)(C)CO)CC5C)nc4)cc3OC(F)(F)F)cc2)c[nH]1)C(C)O (stereo not drawn) [Example 13-30] | – | – | D (D represents pEC50>10 (EC50<0.1 nM)) | D (D represents pEC50>10 (EC50<0.1 nM)) |
| COC(=O)N[C@H](C(=O)N1C[C@@H](O)C[C@H]1c1nc(-c2ccc(-c3ccc(NC(=O)c4ccc(N5CCN(C(=O)[C@]6(C)CCCN6C(=O)OC)C[C@H]5C)nc4)cc3)cc2)c[nH]1)C(C)C [Example 5] | > 10.00 | 9.00 to 10.00 | – | – |
| COC(=O)N[C@H](C(=O)N1C[C@@H](C)C[C@H]1c1nc(-c2ccc(-c3ccc(C(=O)Nc4ccc(N5CCN(C(=O)[C@]6(C)CCCN6C(=O)[C@H](NC(=O)OC)C(C)C)C[C@H]5C)nc4)cc3OC(F)(F)F)cc2)c[nH]1)C(C)C [Example 4-7] | – | – | D (D represents pEC50>10 (EC50<0.1 nM)) | D (D represents pEC50>10 (EC50<0.1 nM)) |
| COC(=O)N[C@H](C(=O)N1C[C@@H](C)C[C@H]1c1nc(-c2ccc(-c3cc(Cl)c(NC(=O)c4ccc(N5C[C@H](C)N(C(=O)[C@H]6CC6(C)C)C[C@H]5C)nc4)cc3OC(F)(F)F)cc2)c[nH]1)C(C)C [Example 1-20] | – | – | D (D represents pEC50>10 (EC50<0.1 nM)) | D (D represents pEC50>10 (EC50<0.1 nM)) |
| COC(=O)N[C@H](C(=O)N1C[C@@H](C)C[C@H]1c1nc(-c2ccc(-c3ccc(C(=O)Nc4ccc(N5C[C@H](C)N(C(=O)C6CC6)C[C@H]5C)nc4)cc3OC(F)(F)F)cc2)c[nH]1)C(C)C [Example 4-16] | – | – | D (D represents pEC50>10 (EC50<0.1 nM)) | C (C represents pEC50 between and 9 and about 10, (EC50 between 1 nM and 0.1 nM)) |
| COC(=O)N[C@H](C(=O)N1C[C@@H](OC)C[C@H]1c1nc(-c2ccc(-c3ccc(NC(=O)c4ccc(N5CCN(C(=O)C(C)(C)C)C[C@H]5C)nc4)cc3OC(F)(F)F)cc2)c[nH]1)C(C)C [Example 27-8] | – | – | D (D represents pEC50>10 (EC50<0.1 nM)) | D (D represents pEC50>10 (EC50<0.1 nM)) |
| COC(=O)N[C@H](C(=O)N1C[C@@H](OC)C[C@H]1c1nc(-c2ccc(-c3ccc(NC(=O)c4ccc(N5CCN(C(=O)C(C)(C)C)C[C@H]5C)nc4)cc3OC(F)(F)F)cc2)c[nH]1)C1CCOCC1 [Example 28-2] | – | – | D (D represents pEC50>10 (EC50<0.1 nM)) | D (D represents pEC50>10 (EC50<0.1 nM)) |
| COC(=O)N[C@H](C(=O)N1C[C@@H](C)C[C@H]1c1nc(-c2ccc(-c3ccc(C(=O)Nc4ccc(N5CCN(C(=O)[C@H]6CC6(C)C)C[C@H]5C)nc4)cc3)cc2)c[nH]1)C(C)C [Example 4-1] | – | – | D (D represents pEC50>10 (EC50<0.1 nM)) | D (D represents pEC50>10 (EC50<0.1 nM)) |
| COC(=O)N[C@H](C(=O)N1C[C@@H](C)C[C@H]1c1nc(-c2ccc(-c3cc(Cl)c(C(=O)Nc4ccc(N5CCN(C(=O)C(C)(C)C)C[C@H]5C)nc4)cc3OC(F)(F)F)cc2)c[nH]1)C(C)C [Example 4-46] | – | – | D (D represents pEC50>10 (EC50<0.1 nM)) | D (D represents pEC50>10 (EC50<0.1 nM)) |
| CNC(=O)N1C[C@@H](C)N(c2ccc(C(=O)Nc3cc(OC(F)(F)F)c(-c4ccc(-c5c[nH]c([C@@H]6C[C@H](C)CN6C(=O)[C@@H](NC(=O)OC)C(C)C)n5)cc4)cc3F)cn2)C[C@@H]1C [Example 1-16] | – | – | D (D represents pEC50>10 (EC50<0.1 nM)) | D (D represents pEC50>10 (EC50<0.1 nM)) |
| COC(=O)N[C@H](C(=O)N1C[C@@H](C)C[C@H]1c1nc(-c2ccc(-c3cc(Cl)c(C(=O)Nc4ccc(N5CCN(C(=O)[C@H]6CC6(C)C)C[C@H]5C)nc4)cc3OC(F)(F)F)cc2)c[nH]1)C1CCOCC1 [Example 22-5] | – | – | D (D represents pEC50>10 (EC50<0.1 nM)) | D (D represents pEC50>10 (EC50<0.1 nM)) |
| COC(=O)N[C@H](C(=O)N1C[C@@H](C)C[C@H]1c1nc(-c2ccc(-c3cc(F)c(NC(=O)c4ccc(N5CCN(C(=O)C(C)(C)C)C[C@H]5C)nc4)cc3OC(F)(F)F)cc2)c[nH]1)[C@H](C)O [Example 13-20] | > 10.00 | > 10.00 | – | – |
| COC(=O)NC(C(=O)N1CC(OC)CC1c1nc(-c2ccc(-c3cc(F)c(NC(=O)c4ccc(N5CCN(C(=O)C(C)(C)CO)CC5C)nc4)cc3OC(F)(F)F)cc2)c[nH]1)C(C)OC (stereo not drawn) [Example 16-13] | – | – | D (D represents pEC50>10 (EC50<0.1 nM)) | D (D represents pEC50>10 (EC50<0.1 nM)) |
| COC(=O)N[C@H](C(=O)N1C[C@@H](C)C[C@H]1c1nc(-c2ccc(-c3cc(Cl)c(C(=O)Nc4ccc(N5CCN(C(=O)C(C)(C)C)C[C@@H]5C)nc4)cc3OC(F)(F)F)cc2)c[nH]1)C1CCOCC1 [24-1] | – | – | D (D represents pEC50>10 (EC50<0.1 nM)) | C (C represents pEC50 between and 9 and about 10, (EC50 between 1 nM and 0.1 nM)) |
| COC(=O)N[C@H](C(=O)N1C[C@@H](C)C[C@H]1c1nc(-c2ccc(-c3cc(F)c(NC(=O)c4ccc(N5CCN(C(=O)C(C)(C)C)C[C@H]5C)nc4)cc3OC(F)(F)F)cc2)c[nH]1)[C@H](C)OC [Example 13-21] | > 10.00 | > 10.00 | – | – |
| COC(=O)N[C@H](C(=O)N1C[C@@H](OC)C[C@H]1c1nc(-c2ccc(-c3cc(F)c(NC(=O)c4ccc(N5CCN(C(=O)C(C)(C)CO)C[C@H]5C)nc4)cc3OC(F)(F)F)cc2)c[nH]1)C1CCOCC1 [Example 28-3] | – | – | D (D represents pEC50>10 (EC50<0.1 nM)) | D (D represents pEC50>10 (EC50<0.1 nM)) |
| COCC(=O)N1CCC[C@@]1(C)C(=O)N1C[C@@H](C)N(c2ccc(NC(=O)c3ccc(-c4ccc(-c5c[nH]c([C@@H]6C[C@H](C)CN6C(=O)[C@@H](NC(=O)OC)C(C)C)n5)cc4)c(OC(F)(F)F)c3)cn2)C[C@@H]1C [Example 4-8] | – | – | D (D represents pEC50>10 (EC50<0.1 nM)) | D (D represents pEC50>10 (EC50<0.1 nM)) |
| COC(=O)N[C@H](C(=O)N1C[C@@H](OC)C[C@H]1c1nc(-c2ccc(-c3cc(Cl)c(NC(=O)c4ccc(N5CCN(C(=O)[C@H]6CC6(C)C)C[C@H]5C)nc4)cc3OC(F)(F)F)cc2)c[nH]1)C(C)C [Example 27-1] | – | – | D (D represents pEC50>10 (EC50<0.1 nM)) | D (D represents pEC50>10 (EC50<0.1 nM)) |
| COC(=O)N[C@H](C(=O)N1C[C@@H](C)C[C@H]1c1nc(-c2ccc(-c3cc(Cl)c(NC(=O)c4ccc(N5CCN(C(=O)N(C)OC)C[C@H]5C)nc4)cc3OC(F)(F)F)cc2)c[nH]1)C(C)C [Example 12-1] | > 10.00 | > 10.00 | – | – |
| COC(=O)N[C@H](C(=O)N1C[C@@H](OC)C[C@H]1c1nc(-c2ccc(-c3cc(Cl)c(NC(=O)c4ccc(N5C[C@H](C)N(C(=O)C(C)(C)C)C[C@H]5C)nc4)cc3OC(F)(F)F)cc2)c[nH]1)C1CCOCC1 [Example 28-7] | – | – | D (D represents pEC50>10 (EC50<0.1 nM)) | D (D represents pEC50>10 (EC50<0.1 nM)) |
| COC(=O)N[C@H](C(=O)N1C[C@@H](C)C[C@H]1c1nc(-c2ccc(-c3cc(Cl)c(NC(=O)c4ccc(N5CCN(C(=O)C(C)(C)CO)C[C@H]5C)nc4)cc3OC(F)(F)F)cc2)c[nH]1)[C@H](C)OC [Example 13-18] | > 10.00 | > 10.00 | – | – |
